Test [1] deals with Bacillus licheniformis. The test is described as follows: Antibacterial activity against Bacillus licheniformis MW3 after 24 hrs. The class given is functional. The note with it: MW3, 24 h.
In the next test the test system is Staphylococcus simulans. The test is described as follows: Antibacterial activity against Staphylococcus simulans 22 after 24 hrs. The format is functional. The note with it: Staphylococcus simulans, 22, 24 h.
For another test, the system named is Mycolicibacterium phlei. Nature of the test: Antibacterial activity against Mycobacterium phlei after 24 hrs. The class given is functional.
For test [2], the system named is Wolbachia. Nature of the test: Antibacterial activity against Wolbachia. The format is functional.
Another test concerns Priestia megaterium. The test is described as follows: Antibacterial activity against Bacillus megaterium. The format is functional.
A further test has as its system Escherichia coli. The test is described as follows: Antibacterial activity against Escherichia coli. The format is functional, organism-based.
Test [3] relates to Staphylococcus aureus. Nature of the test: Antibacterial activity against Staphylococcus aureus. The class given is functional.
In test [4] the test system is Staphylococcus aureus. The test is described as follows: Antibacterial activity against Staphylococcus aureus SG511 after 24 hrs. The format is functional. The note with it: SG511, 24 h.
The subject of test [5] is Bacillus licheniformis. The test is described as follows: Antibacterial activity against Bacillus licheniformis DSM13 after 24 hrs. The format is functional. The note with it: DSM 13 = ATCC 14580, 24 h.
A further test deals with Micrococcus luteus. The test is described as follows: Antibacterial activity against Micrococcus luteus ATCC 4698 after 24 hrs. The class given is functional. The settings on record: ATCC 4698, 24 h.
Test [6] concerns Mycolicibacterium smegmatis. The test is described as follows: Antibacterial activity against Mycobacterium smegmatis after 24 hrs. The class given is functional.
Test [7] has as its system Wolbachia. The test is described as follows: Antibacterial activity against Wolbachia infected in C6/36 cells assessed as decrease in 16s rRNA copies at 0.01, 0.1 and 0.5 microg/ml by qPCR analysis. The class given is functional, cell-based. (Quantitative PCR measures a nucleic acid by following its amplification.)
Another test concerns Bacillus subtilis. The test is described as follows: Antibacterial activity against Bacillus subtilis 168 after 24 hrs. The note with it: subsp. subtilis str. 168, 24 h. The class given is functional.
For another test, the system named is Bacillus cereus. The test is described as follows: Antibacterial activity against Bacillus cereus after 24 hrs. The format is functional.
The test system of test [8] is Wolbachia. The test is described as follows: Antibacterial activity against Wolbachia infected in C6/36 cells assessed as decrease in 16s rRNA copies by qPCR analysis. The class given is functional, cell-based.

Molecules are shown by their SMILES. Values after ≈ are worked out from the molar mass of the structure shown. Active and inactive are the calls of the source. The calls are words filed in the database; no cut-off is given here.

As usually defined, the MIC is the least concentration at which growth counts as inhibited. A low value points to greater potency.

Turning to `C/C=C/C/C=C(/C)[C@@H](CC/C(C)=C/C=C(\C)C(=O)c1c(O)cc([C@H](C)CC/C=C/NC(=O)OC)oc1=O)OC(=O)COC(C)=O`, the MIC against Bacillus licheniformis [1] and in the test on Staphylococcus simulans was more than 64 µg/mL each time.

Regarding `C/C=C/C/C=C(/C)[C@@H](CC/C(C)=C/C=C(\C)C(=O)c1c(O)cc([C@H](C)CC/C=C/NC(=O)OC)oc1=O)OC(=O)CCCCCCCCC`, the MIC against Bacillus licheniformis [1] is 64 µg/mL (≈ 93.9 µM); in the test with Staphylococcus simulans it was more than 64 µg/mL.

On to `C/C=C/C/C=C(/C)[C@@H](CC/C(C)=C/C=C(\C)C(=O)c1c(O)cc([C@H](C)CC/C=C/NC(=O)OC)oc1=O)OC(=O)[C@](OC)(c1ccccc1)C(F)(F)F`, for which the MIC is more than 16 µg/mL against Bacillus licheniformis [1], 32 µg/mL (≈ 43 µM) with Staphylococcus simulans and more than 64 µg/mL against Mycolicibacterium phlei.

Regarding `C/C=C/C/C=C(/C)[C@@H](CC/C(C)=C/C=C(\C)C(=O)c1c(O)cc([C@H](C)CC/C=C/NC(=O)OC)oc1=O)OC(C)=O`, the MIC in the test on Bacillus licheniformis [1] was 64 µg/mL (≈ 112 µM); against Staphylococcus simulans, 64 µg/mL (≈ 112 µM); against Mycolicibacterium phlei it was more than 64 µg/mL.

On to `C/C=C/C/C=C(/C)[C@@H](CC/C(C)=C/C=C(\C)C(=O)c1c(O)cc([C@H](C)CC/C=C/NC(=O)OC)oc1=O)OC(=O)c1ccco1`, for which the MIC against Bacillus licheniformis [1] is 64 µg/mL (≈ 103 µM); with Staphylococcus simulans, 64 µg/mL (≈ 103 µM); against Mycolicibacterium phlei, more than 64 µg/mL.

Turning to `CCCCCCCCCCCCC/C=C/[C@@H](O)[C@H](CO)NC(=O)CCCCCCNC(=O)OC`, the outcome in the test on Wolbachia [2], in the test with Priestia megaterium and with Escherichia coli was inactive.

Turning to `C/C=C/C/C=C(/C)[C@@H](CC/C(C)=C/C=C(\C)C(=O)c1c(O)cc([C@H](C)CC/C=C/NC(=O)OC)oc1=O)OC(=O)[C@@](OC)(c1ccccc1)C(F)(F)F`, the MIC against Bacillus licheniformis [1] is more than 16 µg/mL; in the test on Staphylococcus simulans, 64 µg/mL (≈ 86 µM); against Mycolicibacterium phlei, more than 64 µg/mL.

Regarding `C/C=C/C/C=C(/C)C(O)CC/C(C)=C\C=C(/C)C(=O)c1c(O)cc([C@H](C)CC/C=C/NC(=O)OC)oc1=O` (some centres not stated), the figures for the MIC against Priestia megaterium and with Staphylococcus aureus [3] were 0.8 µg/mL (≈ 1.52 µM) and 0.1 µg/mL (≈ 0.19 µM), respectively.

For the compound `C/C=C/C/C=C(/C)CCC/C(C)=C/C=C(\C)C(=O)c1c(O)cc([C@H](C)CC/C=C/NC(=O)OC)oc1=O`, the MIC is 2 µg/mL (≈ 3.91 µM) in the test with Staphylococcus aureus [4]; 4 µg/mL (≈ 7.82 µM) in the test with Bacillus licheniformis [5]; 4 µg/mL (≈ 7.82 µM) against Micrococcus luteus; more than 64 µg/mL in [6]; 32 µg/mL (≈ 62.5 µM) in the test on Bacillus subtilis; 4 µg/mL (≈ 7.82 µM) in the test on Staphylococcus simulans. Further, the MIC in the test with Bacillus cereus stood at 2 µg/mL (≈ 3.91 µM). In addition, in the test with Wolbachia [7], the inhibition entry is “Active”.

Consider `C/C=C/C/C=C(/C)C(=O)CC/C(C)=C/C=C(\C)C(=O)c1c(O)cc([C@H](C)CC/C=C/NC(=O)OC)oc1=O`, for which the MIC was determined as 32 µg/mL (≈ 60.9 µM) in the test with Bacillus licheniformis [1] and 16 µg/mL (≈ 30.4 µM) in the test with Staphylococcus simulans.

With `C/C=C/C/C=C(\C)C(O)CC/C(C)=C/C=C(\C)C(=O)c1c(O)cc([C@H](C)CC/C=C/NC(=O)OC)oc1=O` (some centres not stated) [CORALLOPYRONIN A], the minimal inhibitory concentration (MIC) was 0.5 µg/mL (≈ 0.948 µM) against Staphylococcus aureus [4]; 2 µg/mL (≈ 3.79 µM) with Bacillus licheniformis [5]; 1 µg/mL (≈ 1.9 µM) with Micrococcus luteus; more than 64 µg/mL in [6]; 64 µg/mL (≈ 121 µM) in the test with Bacillus licheniformis [1]; 16 µg/mL (≈ 30.3 µM) against Bacillus subtilis. For the same compound, the MIC is 1 µg/mL (≈ 1.9 µM) in the test on Staphylococcus simulans, more than 64 µg/mL against Mycolicibacterium phlei and 2 µg/mL (≈ 3.79 µM) with Bacillus cereus. Also, the inhibition entry with Wolbachia [8] is “Dose-dependent effect”.

In the case of `C/C=C/C/C=C(/C)[C@@H](CC/C(C)=C/C=C(\C)C(=O)c1c(O)cc([C@H](C)CC/C=C/NC(=O)OC)oc1=O)OC(=O)c1ccccc1`, the minimum inhibitory concentration (MIC) was 64 µg/mL (≈ 101 µM) in the test with Bacillus licheniformis [1], more than 64 µg/mL in the test on Staphylococcus simulans and more than 64 µg/mL in the test on Mycolicibacterium phlei.

As for `C/C=C/C/C=C(/C)C1CCC(C)(C/C=C(\C)C(=O)c2c(O)cc([C@H](C)CC/C=C/NC(=O)OC)oc2=O)O1` (some centres not stated), the MIC in the test on Priestia megaterium is 1.6 µg/mL (≈ 3.03 µM); against Staphylococcus aureus [3], 0.4 µg/mL (≈ 0.758 µM).

In the case of `C/C=C/C/C=C(/C)[C@@H](CC/C(C)=C/C=C(\C)C(=O)c1c(O)cc([C@H](C)CC/C=C/NC(=O)OC)oc1=O)OC(=O)c1cccs1`, the MIC in the test with Bacillus licheniformis [1] and in the test with Staphylococcus simulans was more than 64 µg/mL each time.

As to `CC/C=C/C/C=C(/C)[C@H](O)CC/C(C)=C/C=C(\C)C(=O)c1c(O)cc([C@H](C)CC/C=C/NC(=O)OC)oc1=O`, the MIC was 1.6 µg/mL (≈ 2.95 µM) against Priestia megaterium and 0.4 µg/mL (≈ 0.738 µM) against Staphylococcus aureus [3].

Consider `C/C=C/C/C=C(/C)[C@@H](CC/C(C)=C/C=C(\C)C(=O)c1c(O)cc([C@H](C)CC/C=C/NC(=O)OC)oc1=O)OC(=O)c1ccc(F)cc1`, for which the MIC with Bacillus licheniformis [1] and against Staphylococcus simulans was more than 64 µg/mL in each case.
